Molecules are shown by their SMILES.

In test [1] the target is T1, Vitamin D3 receptor (Sus scrofa domesticus) (UniProt Q7M3G7).
T1 sequence (whole entry): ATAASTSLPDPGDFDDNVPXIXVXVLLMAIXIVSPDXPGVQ
Description: The affinity to the pig intestinal mucosa vitamin D receptor was evaluated in vitro, results expressed as percentage activity at 50% dose response. The test is classed as tissue-based.

Another test concerns Mus musculus. Description: In vivo calcemic effects was tested in vitamin D-replete normal NMRI mice by daily intraperitoneal injections of 1-alpha,25(OH)2D3. It counts as functional.
The subject of another test is MCF7. Description: In vitro biological evaluation was determined on MCF-7 cell line, results expressed as percentage activity at 50% dose response. The test is classed as functional, Homo sapiens.
For test [2], the system named is HL-60. As to the kind of experiment: In vitro biological evaluation was determined on HL60 cell line, results expressed as percentage activity at 50% dose response. It counts as functional, Homo sapiens.
The subject of a further test is Keratinocyte. As to the kind of experiment: In vitro biological evaluation was determined on Keratinocytes, results expressed as percentage activity at 50% dose response. It counts as functional, Homo sapiens.
A further test has as its system MG-63. Description: In vitro biological evaluation was determined on MG-63 cell line, results expressed as percentage activity at 50% dose response. It counts as functional, Homo sapiens.
Test [3] has as its system HL-60. As to the kind of experiment: In vitro biological evaluation was determined on HL60, results expressed as percentage activity at 50% dose response. It counts as functional, Homo sapiens.

Consider `CC(C)(O)C#CCC[C@@]1(C)CC[C@@H](/C=C/C=C2C[C@@H](O)C[C@H](O)C2)C1(C)C`, for which the Activity is 60% in test [1]; 0.25% with Mus musculus; 70% in the test on MCF7; 60% in the test on HL-60 [2]; 85% with Keratinocyte.
On to `C=C1C(=CC=C[C@@H]2CC[C@](C)(/C=C\CC(F)(F)C(C)(C)O)C2(C)C)C[C@@H](O)C[C@@H]1O`, for which the Activity was 40% in test [1]; 12% in the test on MG-63; less than 0.1% in the test with Mus musculus; 70% in the test on MCF7; 20% in the test on HL-60 [2]; 200% in the test with Keratinocyte.
On to `C=C1C(=CC=C[C@@H]2CC[C@](C)(CCCCC(O)(CC)CC)C2(C)C)C[C@@H](O)C[C@@H]1O`, for which the Activity in test [1] is 80%; with MG-63 it was 200%; in the test on Mus musculus, 5%; in the test with MCF7 it was 250%; in the test on HL-60 [2], 100%; in the test on Keratinocyte, 90%.
As to `C=C1C(=CC=C[C@@H]2CC[C@](C)(/C=C\CCC(O)(C(F)(F)F)C(F)(F)F)C2(C)C)C[C@@H](O)C[C@@H]1O`, the Activity in test [1] is 80%; with MG-63, 50%; with Mus musculus, 13%; in the test on MCF7 it was 375%; with HL-60 [2] it was 50%; with Keratinocyte, 300%.
On to `CC1(C)[C@H](/C=C/C=C2C[C@@H](O)C[C@H](O)C2)CC[C@]1(C)CCC#CC(O)(C(F)(F)F)C(F)(F)F`, for which the Activity in test [1] is 100%; in the test with HL-60 [3] it was 300%; in the test with Mus musculus, 1%; with MCF7, 2000%; in the test on Keratinocyte, 4500%.
For the compound `CC(C)(O)C(F)(F)C/C=C\[C@@]1(C)CC[C@@H](/C=C/C=C2C[C@@H](O)C[C@H](O)C2)C1(C)C`, the Activity in test [1] was 70%; in the test on Mus musculus, 0.5%; with MCF7, 10%; in the test with HL-60 [2], 20%; in the test on Keratinocyte, 60%.
On to `C=C1/C(=C\C=C2/CCC[C@]3(C)[C@@H]([C@H](C)CCCC(C)(C)O)CC[C@@H]23)C[C@@H](O)C[C@@H]1O` [CALCITRIOL], for which the Activity (in test [1]; in the test with MG-63; in the test with Mus musculus; in the test with MCF7; in the test with HL-60 [2]; in the test with Keratinocyte) was 100% each time.
Turning to `C=C1/C(=C\C=C\[C@@H]2CC[C@](C)(CCC#CC(C)(C)O)C2(C)C)C[C@@H](O)C[C@@H]1O`, the Activity in test [1] is 9%; in the test on MG-63 it was 50%; in the test on Mus musculus, 0.1%; in the test with MCF7 it was 150%; in the test on HL-60 [2], 100%; in the test on Keratinocyte, 400%.
Take `C=C1C(=CC=C[C@@H]2CC[C@](C)(CCCCC(O)(C(F)(F)F)C(F)(F)F)C2(C)C)C[C@@H](O)C[C@@H]1O`: the Activity in test [1] was 80%; with MG-63 it was 200%; with Mus musculus, 10%; in the test on MCF7, 1250%; in the test with HL-60 [2], 150%; with Keratinocyte, 750%.
Take `C=C1C(=CC=C[C@@H]2CC[C@](C)(CCCCC(C)(C)O)C2(C)C)C[C@@H](O)C[C@@H]1O`: the Activity in test [1] is 30%; in the test on MG-63, 60%; in the test with Mus musculus, less than 1%; with MCF7, 80%; with HL-60 [2], 40%; with Keratinocyte it was 40%.
Turning to `CCC(O)(CC)CCCC[C@@]1(C)CC[C@@H](/C=C/C=C2C[C@@H](O)C[C@H](O)C2)C1(C)C`, the Activity in test [1] was 75%; in the test with MG-63 it was 80%; in the test with Mus musculus it was 0.25%; in the test on MCF7 it was 100%; in the test on HL-60 [2] it was 85%; with Keratinocyte, 40%.
As to `CC(C)(O)CCCC[C@@]1(C)CC[C@@H](/C=C/C=C2C[C@@H](O)C[C@H](O)C2)C1(C)C`, the Activity in test [1] was 40%; in the test with MG-63, 40%; in the test on Mus musculus it was 0.25%; with MCF7, 30%; with HL-60 [2] it was 9%; with Keratinocyte, 10%.
On to `C=C1C(=CC=C[C@@H]2CC[C@](C)(CCCC(F)(F)C(C)(C)O)C2(C)C)C[C@@H](O)C[C@@H]1O`, for which the Activity in test [1] is 75%; in the test on MG-63 it was 50%; with Mus musculus, 3%; in the test with MCF7, 90%; in the test with HL-60 [2] it was 80%; in the test with Keratinocyte, 1350%.

These data come from ChEMBL document CHEMBL1135150, “Vitamin D(3): synthesis of seco C-9,11,21-trisnor-17-methyl-1 alpha, 25-dihydroxyvitamin D(3) analogues” (2002).
